Data taken from patent publication US8389557B2, “Triazole derivatives useful as Axl inhibitors” (Rigel Pharmaceuticals, Inc., priority 2005, dated 2013).

Target: T1, Axl (Homo sapiens, UniProt P30530)
T1 construct: endogenous in cells; host or cells: HeLa cells
T1 sequence (P30530 26-894): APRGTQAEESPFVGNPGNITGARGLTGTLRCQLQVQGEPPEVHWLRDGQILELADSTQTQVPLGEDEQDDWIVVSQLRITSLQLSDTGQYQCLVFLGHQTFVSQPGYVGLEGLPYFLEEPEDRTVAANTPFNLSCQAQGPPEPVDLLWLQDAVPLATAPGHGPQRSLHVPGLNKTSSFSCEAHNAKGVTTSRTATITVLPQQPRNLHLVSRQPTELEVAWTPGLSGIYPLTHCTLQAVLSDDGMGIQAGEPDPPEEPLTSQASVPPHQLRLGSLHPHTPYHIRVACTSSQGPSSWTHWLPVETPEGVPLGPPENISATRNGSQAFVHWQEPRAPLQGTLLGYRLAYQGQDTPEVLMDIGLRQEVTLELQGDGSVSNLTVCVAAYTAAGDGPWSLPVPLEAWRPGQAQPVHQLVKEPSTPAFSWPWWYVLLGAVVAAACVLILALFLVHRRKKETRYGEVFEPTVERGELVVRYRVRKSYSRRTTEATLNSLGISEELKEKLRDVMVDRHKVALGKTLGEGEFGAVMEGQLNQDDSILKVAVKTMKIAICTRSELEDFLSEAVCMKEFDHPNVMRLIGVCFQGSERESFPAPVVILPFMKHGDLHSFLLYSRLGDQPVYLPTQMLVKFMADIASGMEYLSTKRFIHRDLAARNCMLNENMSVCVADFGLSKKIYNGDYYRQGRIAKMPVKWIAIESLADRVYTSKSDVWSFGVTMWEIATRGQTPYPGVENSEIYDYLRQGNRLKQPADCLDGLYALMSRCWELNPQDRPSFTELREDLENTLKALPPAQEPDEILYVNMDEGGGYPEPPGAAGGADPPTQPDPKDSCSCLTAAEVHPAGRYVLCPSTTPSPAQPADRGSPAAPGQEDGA
Test: Phospho-Akt in-cell Western assay (inhibition of Axl activity)
Type: cell-based
Summary of the method: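 HeLa cells on poly-L-lysine, starved 24 h in 0.5% FCS DMEM with Axl/Fc 500 ng/mL, pre-treated with compound 1 h at 37° C. Axl stimulated 5 min by anti-Axl/anti-mouse antibody cross-linking. Fixed cells probed with anti-phospho-Akt and HRP secondary, chemiluminescence read.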

[1] = inhibition of Axl activity, phospho-Akt in-cell Western assay, Table 1
[2] = Table 7, Hela cells, Axl antibody cross-linking stimulation, phospho-Akt chemiluminescence
[3] = inhibition of Axl activity, Table 1
[4] = Table 3, Hela cells, Axl antibody cross-linking stimulation, phospho-Akt chemiluminescence
[5] = Table 5, Hela cells, Axl antibody cross-linking stimulation, phospho-Akt chemiluminescence
[6] = Table 2, Hela cells, Axl antibody cross-linking stimulation, phospho-Akt chemiluminescence

For `Cc1ccc(C(=O)n2nc(Nc3ccc(N4CCCC4)cc3)nc2N)cc1` [compound 300, 5-amino-1-(4-(methyl)phenyl)carbonyl-3-[4-(pyrrolidin-1-yl)phenylamino]-1H-1,2,4-triazole], the IC50 [1] was 1 to 10 µM.
Work on `CN1CCN(c2ccc(C(=O)n3nc(Nc4ccc(OCCN5CCCC5)cc4)nc3N)cc2)CC1` [compound 383, 5-amino-1-(4-(4-methylpiperazin-1-yl)phenyl)carbonyl-3-[4-[2-(pyrrolidin-1-yl)ethoxy]phenylamino]-1H-1,2,4-triazole] yielded an IC50 [1] of less than 1 µM.
Compound `Nc1nc(Nc2ccc(OCCN3CCCC3)cc2)nn1C(=S)Nc1c(F)cccc1F` [compound 326, 5-amino-N-(2,6-difluorophenyl)-3-[4-[2-(pyrrolidin-1-yl)ethoxy]phenylamino]-1H-1,2,4-triazole-1-carbothioamide] has an IC50 [2] of less than 1 µM.
`CC(C)(C)c1ccc(C(=O)n2nc(Nc3ccc(OCCN4CCCC4)cc3)nc2N)cc1` [compound 302, 5-amino-1-(4-(tert-butyl)phenyl)carbonyl-3-[4-[2-(pyrrolidin-1-yl)ethoxy]phenylamino]-1H-1,2,4-triazole] gave an IC50 [1] of less than 1 µM.
With `Cc1ccccc1C(=O)n1nc(Nc2ccc3c(c2)OCCO3)nc1N` [compound 97, 5-amino-3-(1,4-benzodioxan-6-yl)amino-1-(2-(methyl)phenyl)carbonyl-1H-1,2,4-triazole] the IC50 [3] was 10 to 20 µM.
`Cc1ccsc1C(=O)n1nc(Nc2ccc(OCCN3CCCC3)cc2)nc1N` [compound 283, 5-amino-1-(3-methylthien-2-yl)carbonyl-3-[4-[2-(pyrrolidin-1-yl)ethoxy]phenylamino]-1H-1,2,4-triazole] was tested, and the IC50 [4] was less than 1 µM.
Work on `CC(C)Oc1ccc(C(=O)n2nc(Nc3ccc4c(c3)OCCO4)nc2N)cc1` [compound 113, 5-amino-3-(1,4-benzodioxan-6-yl)amino-1-(4-(iso-propoxy)phenyl)carbonyl-1H-1,2,4-triazole] yielded an IC50 [3] of 1 to 10 µM.
With `COC(=O)COc1cccc(C(=O)n2nc(Nc3ccc4c(c3)OCCO4)nc2N)c1` [compound 138, 5-amino-3-(1,4-benzodioxan-6-yl)amino-1-[3-(methoxycarbonylmethoxy)phenyl)carbonyl-1H-1,2,4-triazole] the IC50 [3] was 1 to 10 µM.
Compound `CSc1ccc(C(=O)n2nc(Nc3ccc4c(c3)OCCO4)nc2N)cc1` [compound 237, 5-amino-3-(1,4-benzodioxan-6-yl)amino-1-(4-thiomethylphenyl)carbonyl-1H-1,2,4-triazole] has an IC50 [3] of 1 to 10 µM.
`CC(C)(C)Oc1cccc(C(=O)n2nc(N)nc2NC2C3C=CC(C3)C2C(N)=O)c1` (stereo not drawn) [compound 347, 3-amino-1-(3-(tert-butoxy)phenyl)carbonyl-5-[(3-(aminocarbonyl)bicyclo[2.2.1]hept-5-en-2-yl)amino]-1H-1,2,4-triazole] showed an IC50 (Table 6, Hela cells, Axl antibody cross-linking stimulation, phospho-Akt chemiluminescence) greater than 20 µM.
`CCCCOc1ccc(NC(=O)n2nc(Nc3ccc(OCCN4CCCCC4)cc3)nc2N)cc1` [compound 46, 5-amino-N-(4-butoxyphenyl)-3-[4-[2-(piperidin-1-yl)ethoxy]phenylamino]-1H-1,2,4-triazole-1-carboxamide] gave an IC50 [2] of 1 to 10 µM.
Compound `Cc1cccc(C(=O)n2nc(Nc3ccc4c(c3)N(C(=O)OC(C)(C)C)CCO4)nc2N)c1` [compound 206, 5-amino-3-[(2H,3H-4-tert-butoxycarbonylbenzo[1,4]oxazin-6-yl)amino]-1-(3-methylphenyl)carbonyl-1,2,4-triazole] has an IC50 [5] greater than 20 µM.
`Cc1cc(C(=O)n2nc(Nc3ccc4c(c3)OCCO4)nc2N)ccc1OC(C)C` [compound 258, 5-amino-3-(1,4-benzodioxan-6-yl)amino-1-(3-methyl-4-iso-propoxy)phenylcarbonyl-1H-1,2,4-triazole] showed an IC50 [3] of 1 to 10 µM.
In the case of `CC(C)(C)Oc1ccc(C(=O)n2nc(Nc3ccc(N4CCOCC4)cc3)nc2N)cc1` [compound 57, 5-amino-3-(4-(morpholin-4-yl)phenylamino)-1-(4-(tert-butoxy)phenyl)carbonyl-1H-1,2,4-triazole], the IC50 [3] is reported as less than 1 µM.
For `CN(C)c1cccc(C(=O)n2nc(NC3C4C=CC(C4)C3C(N)=O)nc2N)c1` (stereo not drawn) [compound 352, 5-amino-1-(3-(dimethylamino)phenyl)carbonyl-3-[(5-(aminocarbonyl)bicyclo[2.2.1]hept-2-en-6-yl)amino]-1H-1,2,4-triazole], the IC50 [5] was greater than 20 µM.
Compound `CC(=O)N(C)c1ccc(Nc2nc(N)n(C(=O)NC3CCCCC3)n2)cc1` [compound 185, 3-[4-(acetyl(methyl)amino)phenyl]amino-5-amino-N-cyclohexyl-1H-1,2,4-triazole-1-carboxamide] has an IC50 [2] greater than 20 µM.
Work on `Nc1nc(Nc2ccc(OCCN3CCCC3)cc2)nn1C(=O)c1ccc2ncccc2c1` [compound 288, 5-amino-1-(quinolin-6-yl)carbonyl-3-[4-[2-(pyrrolidin-1-yl)ethoxy]phenylamino]-1H-1,2,4-triazole] yielded an IC50 [4] of less than 1 µM.
`Nc1nc(Nc2ccc(N3CCOCC3)cc2)nn1C(=O)c1cccc(Cl)c1` [compound 74, 5-amino-1-(3-(chloro)phenyl)carbonyl-3-(4-(morpholin-4-yl)phenylamino)-1H-1,2,4-triazole] was tested, and the IC50 [3] was 1 to 10 µM.
Work on `NC(=O)COc1cccc(C(=O)n2nc(Nc3ccc4c(c3)OCCO4)nc2N)c1` [compound 231, 5-amino-1-(3-aminocarbonylmethoxy)phenylcarbonyl-3-(1,4-benzodioxan-6-yl)amino-1H-1,2,4-triazole] yielded an IC50 [3] greater than 20 µM.
`Nc1nc(Nc2ccccc2)nn1C(=O)c1ccc(-c2csnn2)cc1` [compound 334, 5-amino-1-(4-(1,2,3-thiadiazol-4-yl)phenyl)carbonyl-3-(phenylamino)-1H-1,2,4-triazole] showed an IC50 [1] greater than 20 µM.
With `Cc1ccc(C(=O)n2nc(N)nc2Nc2ccc(N3CCCC3)cc2)cc1` [compound 301, 3-amino-1-(4-methylphenyl)carbonyl-5-(4-(pyrrolidin-1-yl)phenylamino]-1H-1,2,4-triazole] the IC50 [6] was greater than 20 µM.
In the case of `Nc1nc(Nc2ccc(OCCN3CCCC3)cc2)nn1C(=O)C1CC2C=CC1C2` (stereo not drawn) [compound 196, 5-amino-1-[2-(bicyclo[2.2.1]hept-5-ene)carbonyl]-3-[4-[2-(pyrrolidin-1-yl)ethoxy]phenylamino]-1H-1,2,4-triazole], the IC50 [4] is reported as greater than 20 µM.
`CN1CCN(c2ccc(Nc3nc(N)nn3C(=O)c3cccc(N(C)C)c3)cc2)CC1` [compound 364, 3-amino-1-(3-(dimethylamino)phenyl)carbonyl-5-(4-(4-methylpiperazin-1-yl)phenylamino]-1H-1,2,4-triazole] was tested, and the IC50 [6] was 1 to 10 µM.
For `Cc1cc(C)cc(NC(=O)n2nc(Nc3ccc(OCCN4CCCCC4)cc3)nc2N)c1` [compound 199, 5-amino-N-(3,5-(dimethyl)phenyl)-3-[4-[2-(piperidin-1-yl)ethoxy]phenylamino]-1H-1,2,4-triazole-1-carboxamide], the IC50 [2] was greater than 20 µM.
`Cc1cccc(C(=O)n2nc(Nc3cccc(OCS(C)(=O)=O)c3)nc2N)c1` [compound 235, 5-amino-1-(3-methylphenyl)carbonyl-3-[3-(methylsulfonylmethoxy)phenyl]amino-1H-1,2,4-triazole] was tested, and the IC50 [3] was 1 to 10 µM.
`Nc1nc(Nc2ccc(OCCN3CCCC3)cc2)nn1C(=O)c1ccc(-n2cccc2)cc1` [compound 282, 5-amino-1-(4-(pyrrol-1-yl)phenyl)carbonyl-3-[4-[2-(pyrrolidin-1-yl)ethoxy]phenylamino]-1H-1,2,4-triazole] showed an IC50 [1] of less than 1 µM.
`Nc1nc(Nc2ccc3c(c2)OCCO3)nn1C(=O)c1ccc(F)cc1` [compound 100, 5-amino-3-(1,4-benzodioxan-6-yl)amino-1-(4-(fluoro)phenyl)carbonyl-1H-1,2,4-triazole] showed an IC50 [3] greater than 20 µM.
With `Nc1nc(Nc2ccc(OCCN3CCCC3=O)cc2)nn1C(=O)c1ccc(-c2csnn2)cc1` [compound 338, 5-amino-1-(4-(1,2,3-thiadiazol-4-yl)phenyl)carbonyl-3-[4-[2-(pyrrolidin-2-on-1-yl)ethoxy]phenylamino]-1H-1,2,4-triazole] the IC50 [1] was 1 to 10 µM.
Work on `Nc1nc(Nc2ccc(OCCN3CCCC3)cc2)nn1C(=O)c1csnn1` [compound 312, 5-amino-1-(1,2,3-thiadiazol-4-yl)carbonyl-3-[4-[2-(pyrrolidin-1-yl)ethoxy]phenylamino]-1H-1,2,4-triazole] yielded an IC50 [4] greater than 20 µM.
`CC(C)Oc1ccc(C(=O)n2nc(N)nc2Nc2ccc(N3CCN(C)CC3)cc2)cc1` [compound 360, 3-amino-1-(4-(iso-propoxy)phenyl)carbonyl-5-(4-(4-methylpiperazin-1-yl)phenylamino]-1H-1,2,4-triazole] gave an IC50 [6] of 1 to 10 µM.
